The values below are quoted from earlier work in patent US20210198628A1, “BASAL MEDIA FOR GROWING NK-92 CELLS” (NantKwest, Inc., priority 2018, published 2021).

SMILES strings stand for the structures.

The conditions of the data set: in vivo.

For `CC[C@H](C(=O)N1CCCC[C@H]1C(=O)O[C@H](CCc1ccc(OC)c(OC)c1)c1cccc(OCC(=O)NCCNC(=O)COc2cccc([C@@H](CCc3ccc(OC)c(OC)c3)OC(=O)[C@@H]3CCCCN3C(=O)[C@@H](CC)c3cc(OC)c(OC)c(OC)c3)c2)c1)c1cc(OC)c(OC)c(OC)c1` [AP1903], the “tolerability in clinical studies” value is “well tolerated”.
